Results as given in US9115117B2, “Substituted piperidine compounds and their use as orexin receptor modulators” (JANSSEN PHARMACEUTICA NV, priority 2013, dated 2015).
pKi: −log10 of the molar value. Structures can show the parent of a compound that is named as a salt.

Experiments:
human orexin 2 receptor = human orexin 2 receptor (Homo sapiens (Human), UniProt O43614); experiment: Human orexin 2 receptor radioligand binding ([3H]-EMPA); conditions: HEK293 stably expressing human orexin 2 receptor; [3H]-EMPA; apparent Ki; read-out: hOX2 Ki
Sequence of human orexin 2 receptor (O43614 whole entry): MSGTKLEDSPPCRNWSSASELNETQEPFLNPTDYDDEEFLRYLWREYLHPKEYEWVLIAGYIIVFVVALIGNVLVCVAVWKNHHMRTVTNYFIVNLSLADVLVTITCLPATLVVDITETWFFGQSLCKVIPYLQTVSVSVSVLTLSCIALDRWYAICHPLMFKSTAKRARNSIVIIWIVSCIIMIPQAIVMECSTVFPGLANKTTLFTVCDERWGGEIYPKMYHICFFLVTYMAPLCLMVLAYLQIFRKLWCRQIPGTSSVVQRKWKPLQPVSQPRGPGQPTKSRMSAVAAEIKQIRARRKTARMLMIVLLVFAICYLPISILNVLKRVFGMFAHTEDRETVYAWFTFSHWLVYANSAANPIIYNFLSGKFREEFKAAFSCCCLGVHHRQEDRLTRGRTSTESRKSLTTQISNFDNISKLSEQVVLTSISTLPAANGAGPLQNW
Protocol: After centrifugation (2K×G, 5 min at 4° C.), the supernatant was aspirated and the pellets frozen and stored at −80° C. […] Each cell pellet from a 15 cm plate was resuspended in 10 mL, stored on ice, and homogenized for 45 sec just prior to addition to the reactions. Competition binding experiments in 96 well polypropylene plates were performed using [^3H]-EMPA (Moraveck Corporation, specific activity=29.6 Ci/mmol), diluted to a 5 nM concentration in PBS (2 nM final concentration). […] The final concentration of DMSO in the reactions is equal to or less than 0.1%. Total and nonspecific binding was determined in the absence and presence of […]. The total volume of each reaction is 200 μL (20 μL of diluted compounds, 80 μL of [^3H]-EMPA diluted in PBS and 100 μL of the cell suspension).
The plates were washed 3 times by aspirating 30 ml PBS through the plates. Plates were dried in 55° C. oven for 60 min, scintillation fluid was added, and the radioactivity was counted on a Topcount (Packard).

human orexin 1 receptor = human orexin 1 receptor (Homo sapiens, UniProt O43613); experiment: Human orexin 1 receptor radioligand binding; conditions: CHO cells stably expressing human orexin 1 receptor; apparent Ki; read-out: hOX1 Ki
Protocol: The in vitro affinity of the compounds of the invention for the rat/human orexin 1 and human orexin 2 receptors was determined by competitive radioligand binding using [^3H](1-(5-(2-fluoro-phenyl)-2-methyl-thiazol-4-yl)-1-((S)-2-(5-phenyl-(1,3,4)oxadiazol-2-ylmethyl)-pyrrolidin-1-yl)-methanone)(Langmead et al., 2004) and [^3H]EMPA (n-ethyl-2[96-methoxy-pyridin-3-yl)-(toluene-2-sulfonyl)-amino]-N-pyridin-3-ylmethyl acetamide), respectively (Langmead et al., 2004, British Journal of Pharmacology 141:340-346; Malherbe et al., 2004, British Journal of Pharmacology 156:1326-41).
Human Embryonic Kidney 293 cells (HEK293) stably expressing rat orexin 1 receptor (Genebank accession number NM_001525) or Chinese ovary cells (CHO) stably expressing human orexin 1 receptor (Genebank accession number NM_001526) were grown to confluency in DMEM (Hyclone, cat #SH30022), 10% FBS, 1× Pen/Strep, 1× sodium pyruvate, 10 mM HEPES, 600 µg/mL G418 and DMEM/F12 (Gibco, Cat #11039), 10% FBS, 1× Pen/Strep, 600 µg/mL G418 media, respectively on 150 cm^2 tissue culture plates, washed with 5 mM EDTA in PBS (HyClone Dulbecco's Phoshpate Buffered Saline 1× with Calcium and Magnesium, Cat #SH30264.01, hereafter referred to simply as PBS) and scraped into 50 ml tubes. After centrifugation (2K×G, 5 min at 4° C.), the supernatant was aspirated and the pellets frozen and stored at −80° C. Cells were resuspended in PBS in the presence of 1 tablet of protease inhibitor cocktail (Roche, Cat. #11836145001) per 50 mL. Each cell pellet from a 15 cm plate was resuspended in 10 mL, stored on ice, and homogenized for 45 sec prior to addition to the reactions. Competition binding experiments in 96 well polypropylene plates were performed using [^3H]-(1-(5-(2-fluoro-phenyl)-2-methyl-thiazol-4-yl)-1-((S)-2-(5-phenyl-(1,3,4)oxadiazol-2-ylmethyl)-pyrrolidin-1-yl)-methanone) (Moraveck Corporation, specific activity=35.3 Ci/mmol), diluted to a 10 nM concentration in PBS (4 nM final). […] The final concentration of DMSO in the reactions is equal to or less than 0.1%. Total and nonspecific binding was determined in the absence and presence of 10 μM almorexant. The total volume of each reaction is 200 μL (20 μL of diluted compounds, 80 μL of [3H]-(1-(5-(2-fluoro-phenyl)-2-methyl-thiazol-4-yl)-1-((S)-2-(5-phenyl-(1,3,4)oxadiazol-2-ylmethyl)-pyrrolidin-1-yl)-methanone) diluted in PBS and 100 μL of the cell suspension). Reactions were run for 60 min at room temperature and terminated by filtration through GF/C filter plates (PerkinElmer, Cat. #6005174) presoaked in 0.3% polyethylenimine using the cell harvester (PerkinElmer Filtermate). The plates were washed 3 times by aspirating 30 ml PBS through the plates. Plates were dried in 55° C. oven for 60 min, scintillation fluid was added, and the radioactivity was counted on a Topcount (Packard).

rat orexin 1 receptor = rat orexin 1 receptor (Rattus norvegicus, UniProt P56718); experiment: Rat orexin 1 receptor radioligand binding; conditions: HEK293 cells stably expressing rat orexin 1 receptor; apparent Ki; read-out: rOX1 Ki
Protocol: After centrifugation (2K×G, 5 min at 4° C.), the supernatant was aspirated and the pellets frozen and stored at −80° C. […] Each cell pellet from a 15 cm plate was resuspended in 10 mL, stored on ice, and homogenized for 45 sec prior to addition to the reactions. Competition binding experiments in 96 well polypropylene plates were performed using [^3H]-(1-(5-(2-fluoro-phenyl)-2-methyl-thiazol-4-yl)-1-((S)-2-(5-phenyl-(1,3,4)oxadiazol-2-ylmethyl)-pyrrolidin-1-yl)-methanone) (Moraveck Corporation, specific activity=35.3 Ci/mmol), diluted to a 10 nM concentration in PBS (4 nM final). […] The final concentration of DMSO in the reactions is equal to or less than 0.1%. Total and nonspecific binding was determined in the absence and presence of 10 μM almorexant. The total volume of each reaction is 200 μL (20 μL of diluted compounds, 80 μL of [3H]-(1-(5-(2-fluoro-phenyl)-2-methyl-thiazol-4-yl)-1-((S)-2-(5-phenyl-(1,3,4)oxadiazol-2-ylmethyl)-pyrrolidin-1-yl)-methanone) diluted in PBS and 100 μL of the cell suspension). […] The plates were washed 3 times by aspirating 30 ml PBS through the plates. Plates were dried in 55° C. oven for 60 min, scintillation fluid was added, and the radioactivity was counted on a Topcount (Packard).

Structure (SMILES)	pKi (human orexin 2 receptor)	pKi (human orexin 1 receptor)	pKi (rat orexin 1 receptor)
Cc1ccc(C(=O)N2CCC[C@@H](Nc3ccc(C(F)(F)F)cn3)[C@@H]2C)c(-n2nccn2)c1 [Example 14, (4-methyl-2-(2H-1,2,3-triazol-2-yl)phenyl)((2S,3R)-2-methyl-3-((5-(trifluoromethyl)pyridin-2-yl)amino)piperidin-1-yl)methanone]	6.17	8.15	8.05
COc1ccc(C(=O)N2CCC[C@@H](Nc3ccc(C(F)(F)F)cn3)[C@@H]2C)c(-n2nccn2)c1 [Example 97, (4-methoxy-2-(2H-1,2,3-triazol-2-yl)phenyl)((2S,3R)-2-methyl-3-((5-(trifluoromethyl)pyridin-2-yl)amino)piperidin-1-yl)methanone]	5.21	7.49	7.36
Cc1ccc(-c2ncccn2)c(C(=O)N2CCC[C@@H](Nc3nc4ccccc4o3)[C@@H]2C)n1 [Example 81, ((2S,3R)-3-(benzo[d]oxazol-2-ylamino)-2-methylpiperidin-1-yl)(6-methyl-3-(pyrimidin-2-yl)pyridin-2-yl)methanone]	7.00	7.64	7.85
CCOc1ccccc1C(=O)N1CCC[C@@H](Nc2ccc(Br)cn2)[C@@H]1C (racemic) [Example 44, (±)-trans-(3-(5-bromopyridin-2-yl)amino)-2-methylpiperidin-1-yl)(2-ethoxyphenyl)methanone]	5.80	7.14	7.09
Cc1cnc(C(=O)N2CCC[C@@H](Nc3ccc(Br)cn3)[C@@H]2C)c(-c2ncco2)c1 [Example 80, ((2S,3R)-3-((5-bromopyridin-2-yl)amino)-2-methylpiperidin-1-yl)(5-methyl-3-(oxazol-2-yl)pyridin-2-yl)methanone]	5.31	7.62	7.54
Cc1ccc(-c2ncco2)c(C(=O)N2CCC[C@@H](Nc3ccc(C(F)(F)F)cn3)[C@@H]2C)n1 [Example 25, ((2S,3R)-2-methyl-3-((5-(trifluoromethyl)pyridin-2-yl)amino)piperidin-1-yl)(6-methyl-3-(oxazol-2-yl)pyridin-2-yl)methanone hydrochloride]	6.72	7.72	7.96
C[C@H]1[C@H](Nc2cnc(C(F)(F)F)cn2)CCCN1C(=O)c1ccccc1-n1nccn1 [Example 85, (2-(2H-1,2,3-triazol-2-yl)phenyl)((2S,3R)-2-methyl-3-((5-(trifluoromethyl)pyrazin-2-yl)amino)piperidin-1-yl)methanone]	6.68	8.00	8.10
Cc1cnc(C(=O)N2CCC[C@@H](Nc3cnc(C(F)(F)F)cn3)[C@@H]2C)c(-n2nccn2)c1 [Example 72, ((2S,3R)-2-methyl-3-((5-(trifluoromethyl)pyrazin-2-yl)amino)piperidin-1-yl)(5-methyl-3-(2H-1,2,3-triazol-2-yl)pyridin-2-yl)methanone]	5.40	7.48	7.62
Cc1cnc(C(=O)N2CCC[C@@H](Nc3ccc(Cl)cn3)[C@@H]2C)c(-c2ncco2)c1 [Example 77, ((2S,3R)-3-((5-chloropyridin-2-yl)amino)-2-methylpiperidin-1-yl)(5-methyl-3-(oxazol-2-yl)pyridin-2-yl)methanone]	5.40	7.26	7.44
Cc1ccc(C(=O)N2CCC[C@@H](Nc3ccc(C(F)(F)F)cn3)[C@@H]2C)c(-n2nccn2)c1 (racemic) [Example 13, (±)-trans-(4-methyl-2-(2H-1,2,3-triazol-2-yl)phenyl)(2-methyl-3-((5-(trifluoromethyl)pyridin-2-yl)amino)piperidin-1-yl)methanone]	6.04	8.05	7.82
C[C@H]1[C@H](Nc2ccc(C(F)(F)F)nn2)CCCN1C(=O)c1ccccc1-n1nccn1 (racemic) [Example 33, (±)-trans-(2-(2H-1,2,3-triazol-2-yl)phenyl)(2-methyl-3-((6-(trifluoromethyl)pyridazin-3-yl)amino)piperidin-1-yl)methanone hydrochloride]	5.32	6.80	6.70

The remaining lines, values ahead:

pKi (human orexin 2 receptor)	pKi (human orexin 1 receptor)	pKi (rat orexin 1 receptor)	Structure (SMILES)
6.25	7.92	8.10	Cc1ccc(C(=O)N2CCC[C@@H](Oc3ccc(C(F)(F)F)cn3)[C@@H]2C)c(-n2nccn2)c1 [Example 112, (4-methyl-2-(2H-1,2,3-triazol-2-yl)phenyl)((2S,3R)-2-methyl-3-((5-(trifluoromethyl)pyridin-2-yl)oxy)piperidin-1-yl)methanone]
< 5.00	6.99	7.09	COc1ccc(C(=O)N2CCC[C@@H](Nc3ncc(C(F)(F)F)cn3)[C@@H]2C)c(-n2nccn2)c1 [Example 95, (4-methoxy-2-(2H-1,2,3-triazol-2-yl)phenyl)((2S,3R)-2-methyl-3-((5-(trifluoromethyl)pyrimidin-2-yl)amino)piperidin-1-yl)methanone]
6.62	8.00	8.00	COc1ccc(-n2nccn2)c(C(=O)N2CCC[C@@H](Nc3ccc(C(F)(F)F)cn3)[C@@H]2C)c1 (racemic) [Example 19, (±)-trans-(5-methoxy-2-(2H-1,2,3-triazol-2-yl)phenyl)(2-methyl-3-((5-(trifluoromethyl)pyridin-2-yl)amino)piperidin-1-yl)methanone]
6.82	8.10	7.85	Cc1cccc(C(=O)N2CCC[C@@H](Nc3ccc(C(F)(F)F)cn3)[C@@H]2C)c1-n1nccn1 (racemic) [Example 20, (±)-trans-(3-methyl-2-(2H-1,2,3-triazol-2-yl)phenyl)(2-methyl-3-((5-(trifluoromethyl)pyridin-2-yl)amino)piperidin-1-yl)methanone]
5.72	7.68	8.15	Cc1cnc(C(=O)N2CCC[C@@H](Nc3nc4ccccc4o3)[C@@H]2C)c(-n2nccn2)c1 [Example 73, ((2S,3R)-3-(benzo[d]oxazol-2-ylamino)-2-methylpiperidin-1-yl)(5-methyl-3-(2H-1,2,3-triazol-2-yl)pyridin-2-yl)methanone]
